Laboratory results from patent publication EP0081425B1, “Pharmaceutical compositions having normolipemic properties and containing compounds of the n-substituted benzenesulfonamide type” (priority 1981, dated 1983).
Like-named read-outs stand apart in the source and are kept apart here.

Legend:
[1] = system: hyperlipidémie provoquée par l'administration de TRITON®; assay: Triton test: hyperlipidemia induced by i.v. TRITON W.R. in fasted rats; type: in vivo, rats WISTAR mâles; conditions: for inhibition in vivo at 250 mg/kg: Rattus norvegicus, po, blood assayed 6 h and/or 24 h later
Text: Dans une première série d'expériences, des produits ont été testés sur une hyperlipidémie provoquée par l'administration de TRITON® selon le protocole suivant.
Les essais ont été réalisés sur des groupes de cinq rats WISTAR mâles dont le poids varie de 150 à 175 g.
Pour effectuer ces essais, on provoque une hyperlipidémie chez les animaux, au moyen du produit commercialisé par la Société ROHM and HAAS sous le nom de TRITON® W. R.
On observe, sur cette hyperlipidémie, les effets obtenus par administration des substances actives selon l'invention.
Les essais sont réalisés comme suit : • les rats sont mis à jeûner pendant 18 heures, puis on administre le TRITON® W.R. par voie intraveineuse en solution aqueuse à 10 % à raison de 200 mg/kg ;
6 heures et/ou 24 heures plus tard, on effectue les dosages sur le sang de façon traditionnelle.
Dans la première colonne, on a indiqué le numéro du composé testé.
Dans la deuxième colonne, on a indiqué le nombre d'animaux qui ont été soumis au test.
Dans les quatre dernières colonnes, on a indiqué les résultats relatifs respectivement : • aux lipides totaux, • aux triglycérides, • au cholestérol total, • au cholestérol estérifié.
Dans chacune de ces colonnes, on indique : • a) le pourcentage de diminution par rapport au témoin TRITON; • b) le score par rapport au clofibrate de référence, c'est-à-dire le rapport de l'intensité de l'activité du produit testé vis-à-vis de celle,de l'activité au clofibrate comptée pour 1.

[2] = system: animaux ayant reçu pendant une durée prolongée un régime athéromateux; assay: Atheromatous diet test (cholesterol/cholic acid diet + vitamin D2): biochemical, macroscopic and microscopic examinations; type: in vivo, rats WISTAR femelles
Text: Dans une deuxième série expérimentale, on a testé l'activité de certains produits de l'invention sur des animaux ayant reçu pendant une durée prolongée un régime athéromateux.
L'essai s'effectue sur des rats WISTAR femelles, d'un poids d'environ 160-180 g.
Les animaux reçoivent une alimentation provenant de l'usine d'alimentation nationale de Villemois- son-Sur-Orge, France, et désignée sous la référence UAR A03, enrichie en cholestérol (0,5 %) et en acide cholique (0,5 %).
Après 15 jours de régime athéromateux et tout en maintenant les animaux sous régime athéromateux, on leur administre par voie orale pendant 4 jours 250 000 ui/kg de vitamine D2 commercialisée sous le nom de Stérogyl 25H, en solution dans de l'huile d'olive.
On administre ensuite les produits à étudier pendant 4 semaines, dès la fin de l'administration de l'agent lésionnel.
La quantité de produit administrée aux animaux est de 100 mg/kg.
En fin d'étude, on effectue sur tous les animaux des examens biochimiques (cholestérol total, cholesterol high density lipoprotein (HDL) et cholesterol low density lipoprotein (LDL), et triglycérides).
En fin d'étude, tous les animaux encore vivants sont sacrifiés, et l'on prélève divers organes dont particulièrement l'aorte, pour l'étude histologique de cette dernière. Deux critères sont étudiés : le nombre de zones athéromateuses et l'intensité des lésions.
Le calcul des cotations s'effectue de la façon suivante : • en ce qui concerne l'intensité des lésions, on effectue une cotation allant de 0 pour l'absence de lésion à […] pour les lésions les plus fortes, et ceci pour chaque type d'altération considéré (augmentation des espaces interlamellalres, interruption des lames élastiques, épaississement des lames élastiques, dépôt de calcium, dépôt de mucopolysaccharides); puis on fait l'addition de la totalité des résultats par lot d'animaux; • en ce qui concerne le nombre de zones athéromateuses, par comptage de ces dernières et addition de la totalité des chiffres obtenus par lot d'animaux.
On calcule ensuite le pourcentage de diminution par rapport aux témoins régime et le score, c'est-à-dire le rapport de l'intensité de l'activité du produit testé vis-à-vis de celle de l'activité du clofibrate, compté pour 1.
Le tableau IV donne les résultats détaillés des examens biochimiques : • a) en % de diminution par rapport au témoin régime; • b) en score, par rapport au produit de référence, le clofibrate, ce dernier étant compté pour 1.
Le tableau V donne le résultat des examens macroscopiques : • a) en % de diminution des animaux atteints de lésions; • b) en score par rapport au clofibrate de référence, dont le score est compté pour 1.
Le tableau VI donne les résultats microscopiques avec cotation histologique concernant l'intensité des lésions, et le nombre de zones athéromateuses.

[3] = Acute oral toxicity (lethal dose); type: in vivo; conditions: mouse, in vivo, po, oral, read-out: DL50 (the source's name) (converted)
Text: (§1) La toxioité aiguë est exprimée par la dose létale 50, c'est-à-dire la dose létale entraînant la mort de 50 % des animaux.
(§2) Cette étude a été effectuée sur des souris mâles et femelles auxquelles on a administré les produits à tester par voie orale à des concentrations différentes et on a mesuré la létalité sur dix souris mâles et sur 10 souris femelles.

souris mâles et femelles = assay: Acute oral toxicity (lethal dose); type: in vivo; conditions: for DL0 / DL100: oral
Text: as §1, §2

[4] = 250 mg/kg oral, ratio to clofibrate of the same series
[5] = macroscopic examination, 100 mg/kg for 4 weeks
[6] = 250 mg/kg oral, given with TRITON W.R. 200 mg/kg i.v., read-out: Cholestérol estérifié % (pourcentage de diminution par rapport au témoin TRITON)
[7] = 250 mg/kg oral, given with TRITON W.R. 200 mg/kg i.v., read-out: Cholestérol total % (pourcentage de diminution par rapport au témoin TRITON)
[8] = 250 mg/kg oral, given with TRITON W.R. 200 mg/kg i.v., read-out: Triglycérides % (pourcentage de diminution par rapport au témoin TRITON)
[9] = read-out: Lipides totaux % (pourcentage de diminution par rapport au témoin TRITON), 250 mg/kg oral, given with TRITON W.R. 200 mg/kg i.v.

CCOC(=O)C(C)(C)Oc1ccc(Cl)cc1 [Clofibrate]
Cholestérol estérifié Score (par rapport au clofibrate compté pour 1) [1, 4]: 1,00
Cholestérol total Score (par rapport au clofibrate compté pour 1) [1, 4]: 1,00
Lipides totaux Score (par rapport au clofibrate compté pour 1) [1, 4]: 1,00
Triglycérides Score (par rapport au clofibrate compté pour 1) [1, 4]: 1,00
CHOLESTEROL HDL Score (clofibrate compté pour 1) ([2]; 100 mg/kg for 4 weeks): 1,00
CHOLESTEROL LDL Score (clofibrate compté pour 1) ([2]; 100 mg/kg for 4 weeks): 1,00
CHOLESTEROL T Score (clofibrate compté pour 1) ([2]; 100 mg/kg for 4 weeks): 1,00
TRIGLYCERIDES Score (clofibrate compté pour 1) ([2]; 100 mg/kg for 4 weeks): 1,00
ANIMAUX ATTEINTS % [2, 5]: 81,82%
ANIMAUX ATTEINTS SCORE CLOFIBRATE [2, 5]: 1,00
NOMBRE DE ZONES ATHEROMATEUSES POUR 15 ANIMAUX Score Clofibrate ([2]; microscopic examination): 1,00
COTATION HISTOLOGIQUE Cotation ([2]; microscopic examination of the aorta, intensity of lesions, sum per group, 100 mg/kg for 4 weeks): 49,10
NOMBRE DE ZONES ATHEROMATEUSES POUR 15 ANIMAUX Cotation ([2]; microscopic examination of the aorta, 100 mg/kg for 4 weeks): 72,30
COTATION HISTOLOGIQUE Score Clofibrate ([2]; microscopic examination, intensity of lesions): 1,00

CCC(CO)NS(=O)(=O)c1cc(Cl)c([N+](=O)[O-])cc1OC (stereo not drawn) [compound 316]
Cholestérol estérifié Score (par rapport au clofibrate compté pour 1) [1, 4]: 0,63
Cholestérol total Score (par rapport au clofibrate compté pour 1) [1, 4]: 1,17
Lipides totaux Score (par rapport au clofibrate compté pour 1) [1, 4]: 3,09
inhibition in vivo at 250 mg/kg [1, 6]: 31.2%
inhibition in vivo at 250 mg/kg [1, 7]: 11.1%
inhibition in vivo at 250 mg/kg [1, 8]: 0%
inhibition in vivo at 250 mg/kg [1, 9]: 42.6%
LD50 ([3]; Souris femelles): > 15000 mg/kg
LD50 ([3]; Souris mâles): 18500 mg/kg
DL0 (souris mâles et femelles; Souris femelles): ≥ 15 000 mg/kg
DL100 (souris mâles et femelles; Souris femelles): > 15 000 mg/kg
DL0 (souris mâles et femelles; Souris mâles): 15 000 mg/kg
DL100 (souris mâles et femelles; Souris mâles): > 20 000 mg/kg
toxicité par voie digestive (souris mâles et femelles; conclusion in words from all results): pratiquement dénué de toxicité par voie digestive

COc1ccc(Cl)cc1S(=O)(=O)N(C)CCO [compound 324]
Cholestérol estérifié Score (par rapport au clofibrate compté pour 1) [1, 4]: 0,52
Cholestérol total Score (par rapport au clofibrate compté pour 1) [1, 4]: 2,85
Lipides totaux Score (par rapport au clofibrate compté pour 1) [1, 4]: 0,58
inhibition in vivo at 250 mg/kg [1, 6]: 22.6%
inhibition in vivo at 250 mg/kg [1, 7]: 26.2%
inhibition in vivo at 250 mg/kg [1, 8]: 19.4%
inhibition in vivo at 250 mg/kg [1, 9]: 25.9%

COc1cc(N)c(Cl)cc1S(=O)(=O)N(C)CCO [compound 330]
Cholestérol estérifié Score (par rapport au clofibrate compté pour 1) [1, 4]: 0,96
inhibition in vivo at 250 mg/kg [1, 6]: 41.9%
inhibition in vivo at 250 mg/kg [1, 7]: 0%
inhibition in vivo at 250 mg/kg [1, 8]: 0%

COc1cc([N+](=O)[O-])ccc1S(=O)(=O)N(C)CCO [compound 325]
Cholestérol estérifié Score (par rapport au clofibrate compté pour 1) [1, 4]: 0,04
Lipides totaux Score (par rapport au clofibrate compté pour 1) [1, 4]: 0,06
inhibition in vivo at 250 mg/kg [1, 6]: 1.6%
inhibition in vivo at 250 mg/kg [1, 7]: 0%
inhibition in vivo at 250 mg/kg [1, 8]: 0%
inhibition in vivo at 250 mg/kg [1, 9]: 2.7%
